What was measured:
[1] = test system: liver-derived progenitor cells (LDPCs); test: Self-renewal of LDPCs over two passages and differentiation into hepatocytes; assay type: cell-based, rat; details: for autofluorescence (LDPC marker): 4.5 nM PEDF, 50 nM 34-mer or 50 nM 44-mer; for autofluorescence (LDPC marker) / self-renewal by expression of LDPC markers EpCAM and HNF3-β (immunoblot): two passages, 35 days; for ability of expanded LDPCs to differentiate into hepatocytes (albumin and CK-18 staining): immunofluorescence
Description: (§1) Liver cells from Sprague Dawley rats were harvested by 2-step in situ collagenase perfusion technique. The cells were then washed in phosphate buffered saline and centrifuged (50 g for 5 minutes) twice at room temperature. The cells were not further subjected to any fractionation as previously described (Sahin M B et al., Liver Transpl. 2008 14(3):333-45). Freshly isolated rat liver cells were cultured in a medium consisting of 75% Dulbecco's modified Eagle's medium (DMEM) and 25% MCDB 201 (Sigma-Aldrich) supplemented with 10% fetal bovine serum, 1 mg/mL of bovine serum albumin (BSA; Sigma), 100 μM of β-mercaptoethanol (Gibco, Carlsbad, Calif.), 25 mM of 4-2-hydroxyethyl-1-piperazineethanesulfonic acid (HEPES), 5 mM of Nicotinamide (Sigma-Aldrich), 1% SITE liquid medium (Sigma-Aldrich), and penicillin (100 μg/ml)/streptomycin (100 μg/ml; Invitrogen, Carlsbad, Calif.) on Type I collagen (Sigma, St. Louis, Mo.) coated tissue culture plates or dishes at a density of 1×10^4 cells/cm^2 at 37° C. in 5% CO2.
(§2) Deparaffinized liver tissue sections or 4% paraformaldehyde fixed HSCs were blocked with 10% goat serum and 5% BSA for 1 h. Dual staining was done using primary antibodies against human PEDF (se-59641; Santa Cruz Biotechnology, CA, USA) or α-SMA (ab5694 or ab7817; Abcam), PPARγ (sc-7273; Santa Cruz Biotechnology), albumin (sc-46295; Santa Cruz Biotechnology) or cytokeratin (CK) 18 (GTX112978; GeneTex, Inc.) at 37° C. for 2 h, followed by incubation with the appropriate rhodamine- or FITC-conjugated donkey IgG for 1 hr at room temperature. Nuclei were located by counterstaining with Hoechst 33258 for 7 min. Images were captured using a Zeiss epifluorescence microscope with a CCD camera.
(§3) Cells were scraped into lysis buffer (150 μL/35-mm well) containing 20 mM HEPES (pH 7.4), 1% SDS, 150 mM NaCl, 1 mM EGTA, 5 mM β-glycerophosphate, 10 mM sodium pyrophosphate, 10 mM sodium fluoride, […] sodium orthovanadate, 10 μg/mL leupeptin, and 10 μg/mL aprotinin. The lysate was incubated on ice for 15 min. Total cell lysate was also separated into cytoplasmic and nuclear fractions using the NE-PER nuclear and cytoplasmic extraction kit (Pierce, Rockford, Ill.) according to the manufacturer's instructions. Each cellular fraction was then resolved by SDS-PAGE and then electrotransferred to polyvinylidene difluoride membranes (Millipore, Bedford, Mass.) and processed for immunoblot analysis. Antibodies used in the immunoblot study included human PEDF (sc-59641; Santa Cruz Biotechnology), mouse PEDF (sc-74253; Santa Cruz Biotechnology), type I collagen 1A1 (sc-25974; Santa Cruz Biotechnology), α-SMA (ab5694 or ab7817; Abcam), PPARγ••(sc-7273; Santa Cruz Biotechnology), MCP-1 (ab7202; Abcam Ltd), α-actin (Sigma), epithelial cell adhesion molecule (EpCAM; sc-66020; Santa Cruz Biotechnology), hepatocytes nuclear factor and (HVF)3-β (sc-6554; Santa Cruz Biotechnology). Proteins of interest were detected using the appropriate IgG-HRP secondary antibody and ECL reagent. X-ray films were scanned on a Model GS-700 Imaging Densitometer (Bio-Rad Laboratories, Hercules, Calif.) and analyzed using Labworks 4.0 software. For quantification, blots from at least three independent experiments were used.
It has been reported that LDPCs may not be expanded in conventional basal medium, unless growth factor(s) were added therein (Sahin et al., Liver Transpl. 2008 14(3):333-45). To test the self-renewal property of PEDF derived peptides on LDPCs, liver cells were isolated and grown in separate medium including 4.5 nM (200 ng/ml) PEDF, 50 nM 34-mer or 50 nM 44-mer for two passages, which took a period of 35 days. The newly produced LDPCs in the cultured cells were confirmed by the detection of autofluorescence emitted therefrom; as well as two LDPC markers, which are epithelial cell adhesion molecule (EpCAM) and hepatocytes nuclear factor 3•••(HNF3)-β, by immunoblot analysis. […]

[2] = test system: culture-activated primary rat HSCs; test: Activation of culture-activated primary hepatic stellate cells; assay type: cell-based; details: for Col1a1 expression (immunoblot) / MCP-1 expression (immunoblot) / amounts of PPARγ (immunoblot) / α-SMA expression (immunoblot): 48 hours vs solvent, 4.5 nM PEDF, 50 nM 34-mer, 50 nM 44-mer; for α-SMA by immunofluorescent staining: 34-mer compared with 44-mer PEDF treatment; for HSC morphology: phase contrast / immunofluorescence
Description: Primary HSCs were isolated by in situ perfusion with collagenase and pronase from livers of male Sprague-Dawley rats (300-450 g), followed by a 25%/50% Percoll gradient centrifugation at 4° C. HSCs were isolated from the upper layer of the discontinuous Percoll density gradient as previously described method (Titos et al., FASEB J 2003 17:1745-1747). Then cells were re-suspended in Dulbecco's modified Eagle's medium (DMEM) supplemented with 10% fetal bovine serum (FBS) and 1% penicillin/streptomycin and plated on 100-mm plastic dishes. Cell purity was verified to be approximately 95-98% by vitamin A fluorescence on day 2 after isolation. HSCs were activated by culturing the cells on plastic for 10 days and then passaged by trypsin-EDTA treatment. Subsequently, the activated HSCs were incubated in 10% FBS-DMEM for 2 days and then used for further experiments.
as §2, §3
After treatment, primary rat HSCs were fixed for 2 h with 4% paraformaldehyde, washed by PBS and then permeabilized for 5 min with 0.1% Triton X-100. Changes in F-actin structures were detected by […] rhodamine-conjugated phalloidin (Sigma) for 1 h at room temperature. Stained F-actin was visualized using a Zeiss Axiovert 25 microscope.
To verify whether the PEDF-derived peptides, particularly, 34-mer PEDF and 44-mer PEDF, may prevent HSCs from activation, culture-activated primary rat HSCs were treated with 4.5 nM PEDF, 50 nM 44-mer, 50 nM 34-mer or PEDF solvent (20 mM Tris/HCl, pH 7.4, 100 mM NaCl) for 48 hours. […] Immunofluorescent assay also confirmed that 34-mer PEDF reduced the levels of α-SMA in culture-activated HSCs as compared with 44-mer PEDF treatment (FIG. 6F). Such result is consistent with the finding in Example 1 that PEDF prevents HSCs from activation by induction of PPARγ.

[3] = test system: liver-derived progenitor cells (LDPCs) in primary rat liver cells; test: Clonogenic capacity of liver cells (LDPC colony formation); assay type: cell-based; details: basal medium with 4.5 nM PEDF, 50 nM 34-mer, 50 nM 44-mer or 10% FBS; after 11 days in culture
Description: as §1
To verify the function of 44-mer PEDF, primary rat liver cells were isolated in accordance with steps described above and cultivated (about 1×10^5 per well of 6-well plate; 1×10^4 cells/cm^2) in a conventional basal medium, which was further supplemented with 4.5 nM PEDF, 50 nM 34-mer PEDF, 50 nM 44-mer PEDF or 10% FBS. Medium was changed every 3 days. After being placed in culture for 11 days, clonogenic capacity of liver cells was continuously monitored by phase-contrast microscopy. During this time period, liver-derived progenitor cells (LDPCs) began markedly emerged in primary liver cultures while hepatocytes started dying out. Few colonies were formed by liver cells when continuously cultivated in basal medium, or medium supplemented with 34-mer or FBS.

HSC-T6 cells = test: PPARγ induction and PPARγ siRNA reversal in HSC-T6 cells; assay type: cell-based, rat
Description: HSC-T6 cells, a rat immortalized HSC, retained all features of activated HSCs and was kindly provided by Dr. Friedman S L (Kim et al., J Biol Chem 1998 273:33750-33758). HSC-T6 cells were grown in Waymouth medium supplemented with 10% FBS at 37° C. in a humidified atmosphere of 5% CO2.
The total RNA was extracted from cells using the TRIzol (Invitrogen, Carlsbad, Calif.). […] The intensities of the PCR products were quantified using a FUJI LAS-3000 densitometer and Multi Gauge Ver. […]
Cells were scraped into lysis buffer (150 μL/35-mm well) containing 20 mM HEPES (pH 7.4), 1% SDS, 150 mM NaCl, 1 mM EGTA, 5 mM β-glycerophosphate, 10 mM sodium pyrophosphate, 10 mM sodium fluoride, […] sodium orthovanadate, 10 μg/mL leupeptin, and 10 μg/mL aprotinin. […] Proteins of interest were detected using the appropriate IgG-HRP secondary antibody and ECL reagent. X-ray films were scanned on a Model GS-700 Imaging Densitometer (Bio-Rad Laboratories, Hercules, Calif.) and analyzed using Labworks 4.0 software. For quantification, blots from at least three independent experiments were used. […]

## 34-mer PEDF: synthetic human peptide, the segment of PEDF from amino acid residues 44 to 77 (Ac-DPFFKVPVNKLAAAVSNFGYDLYRVRSSTSPTTN-NH2)
[1]
  autofluorescence (LDPC marker): very little autofluorescence or none at all
[2]
  Col1a1 expression (immunoblot): reduced
  MCP-1 expression (immunoblot): reduced
  amounts of PPARγ (immunoblot): enhanced
  α-SMA expression (immunoblot): reduced
[2]; culture-activated HSCs
  α-SMA by immunofluorescent staining: reduced
  HSC morphology: causes reversal of the activated HSC morphology
[3]
  colonies of LDPCs formed: Few colonies

## Ac-VLLSPLSVATALSALSLGAEQRTESIIHRALTTDLISSPDIHGT-NH2 [44-mer PEDF]
[1]
  autofluorescence (LDPC marker): emitted autofluorescence
  ability of expanded LDPCs to differentiate into hepatocytes (albumin and CK-18 staining): retain the ability of differentiating into hepatocyte
  self-renewal by expression of LDPC markers EpCAM and HNF3-β (immunoblot): exhibits self-renewal property
[2]
  Col1a1 expression (immunoblot): does not possess such effects
  MCP-1 expression (immunoblot): does not possess such effects
  amounts of PPARγ (immunoblot): does not possess such effects
  α-SMA expression (immunoblot): does not possess such effects
[3]
  colonies of LDPCs formed: dense colonies

## PPARγ siRNA: rat PPARγ siRNA (SEQ ID NO: 7/8) or a mixture of four rat PPARγ siRNAs (SMART-pools) (chain 1 CACCAUUUGUCAUCUACGATT; chain 2 UCGUAGAUGACAAAUGGUGTT; chemistry not given here) [reference compound]
HSC-T6 cells; siRNA pretreatment 16 hours before PEDF, 10 nM siRNA
  suppressive effects of PEDF on HSC activation (α-SMA, Col1a1, MCP-1): significantly reduced the suppressive effects of PEDF

B1: pigment-epithelium-derived factor (protein, UniProt P36955 20-418, looked up)
Pigment epithelium-derived …: QNPASPPEEGSPDPDSTGALVEEEDPFFKVPVNKLAAAVSNFGYDLYRVRSSTSPTTNVLLSPLSVATALSALSLGAEQRTESIIHRALYYDLISSPDIHGTYKELLDTVTAPQKNLKSASRIVFEKKLRIKSSFVAPLEKSYGTRPRVLTGNPRLDLQEINNWVQAQMKGKLARSTKEIPDEISILLLGVAHFKGQWVTKFDSRKTSLEDFYLDEERTVRVPMMSDPKAVLRYGLDSDLSCKIAQLPLTGSMSIIFFLPLKVTQNLTLIEESLTSEFIHDIDRELKTVQAVLTVPKLKLSYEGEVTKSLQEMKLQSLFDSPDFSKITGKPIKLTQVEHRAGFEWNEDGAGTTPSPGLQPAHLTFPLDYHLNQPFIFVLRDTDTGALLFIGKILDPRGP
notes: pigment-epithelium-derived factor protein, used at 4.5 nM (200 ng/ml)
[1]
  autofluorescence (LDPC marker): emitted autofluorescence
  ability of expanded LDPCs to differentiate into hepatocytes (albumin and CK-18 staining): retain the ability of differentiating into hepatocyte
  self-renewal by expression of LDPC markers EpCAM and HNF3-β (immunoblot): exhibits self-renewal property
[2]
  Col1a1 expression (immunoblot): significantly reduced
  MCP-1 expression (immunoblot): significantly reduced
  amounts of PPARγ (immunoblot): enhanced
  α-SMA expression (immunoblot): significantly reduced
[2]; culture-activated HSCs
  stress fiber (F-actin, rhodamine-phalloidin staining): reduced
  α-SMA by immunofluorescent staining: reduced
  HSC morphology: dendritic-like morphology with retracted cytoplasm
HSC-T6 cells; 48 hours, RT-PCR and immunoblot
  mRNA and protein expression of PPARγ: induced
[3]
  colonies of LDPCs formed: dense colonies

From patent publication US8507446B2, “Use of PEDF-derived polypeptides for treating liver cirrhosis” (MacKay Memorial Hospital, priority 2011, dated 2013)
